# Patent US20020137929A1, “1 - (3-heterocyclylphenyl) isothiourea, -isourea, -guanidine and -amidine herbicidal agents” (Intellectual Property Department, BASF Aktiengesellschaft, priority 1998, published 2002)
# How the values were obtained:
# ABUTH (Velvetleaf) = assay: Postemergence herbicidal evaluation; format: in vivo, Abutilon theophrasti
# In short: (§1)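 Herbicidal effect was judged by eye on a 0–9 scale covering stand, vigor, deformity, size and chlorosis, compared with controls, four to five weeks after seedlings about two weeks old were sprayed (40 psi, ~0.0156–0.500 kg/ha).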
# AMBEL (Ragweed, Common) = assay: Postemergence herbicidal evaluation; format: in vivo, Ambrosia artemisifolia
# In short: as §1
# [1] = tested on: IPOHE (Morningglory, Ivyleaf); assay: Postemergence herbicidal evaluation; format: in vivo, Ipomoea hederacea
# In short: as §1
# ECHCG (Barnyardgrass) [2] = assay: Postemergence herbicidal evaluation; format: in vivo, Echinochloa crus-galli
# In short: as §1
# SETVI (Foxtail, Green) = assay: Postemergence herbicidal evaluation; format: in vivo, Setaria viridis
# In short: as §1
# [3] = tested on: GLXMAW (Soybean, Williams); assay: Postemergence herbicidal evaluation; format: in vivo, Glycine max, (L.) Merr. cv Williams
# In short: as §1
# [4] = tested on: TRZAWR (Wheat, Winter, cv Riband); assay: Postemergence herbicidal evaluation; format: in vivo, Triticum aestivum
# In short: as §1
# CASOB (Sicklepod) = assay: Preemergence herbicidal evaluation; format: in vivo, Cassia obtusifolia; details: rated 4-5 weeks after treatment
# In short: (§2)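 Scores (0–9) reflect visual comparison with control plants for stand, vigor, malformation, size and chlorosis. Compound was applied to the soil after sowing, before emergence, as an aqueous acetone spray (about 0.0156–0.500 kg/ha), and cups were kept in a greenhouse for 4–5 weeks.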
# [5] = tested on: CHEAL (Lambsquarters, Common); assay: Preemergence herbicidal evaluation; format: in vivo, Chenopodium album; details: rated 4-5 weeks after treatment
# In short: as §2
# GALAP (Galium) = assay: Preemergence herbicidal evaluation; format: in vivo, Galium aparine; details: rated 4-5 weeks after treatment
# In short: as §2
# [6] = tested on: IPOHE (Morningglory, Ivyleaf); assay: Preemergence herbicidal evaluation; format: in vivo, Ipomoea hederacea; details: rated 4-5 weeks after treatment
# In short: as §2
# ECHCG (Barnyardgrass) [7] = assay: Preemergence herbicidal evaluation; format: in vivo, Echinochloa crus-galli; details: rated 4-5 weeks after treatment
# In short: as §2
# ZEAMX (Corn, Field) = assay: Preemergence herbicidal evaluation; format: in vivo, Zea mays; details: rated 4-5 weeks after treatment
# In short: as §2
# [8] = tested on: ECHORC (Watergrass (Calif.)); assay: Postemergence weed control under flooded paddy conditions; format: in vivo, Echinochloa oryzoides; details: postemergence weeds, 3-4 weeks after treatment
# In short: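 With weeds 3 to 5 cm tall and rice at the 1.5 to 2.5 leaf stage, containers were flooded and water held 1.5 to 3 cm above soil. Compounds in 50/50 v/v aqueous/acetone went into the flood water at about 0.0313 to 0.500 kg/ha a.i. Effects were visually rated 0–9 against controls after three to four weeks in the greenhouse.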
smiles,measurement,setting,value
"CCOC(=O)CN1C(=O)CS(=O)(=O)C1=Nc1cc(-n2c(=O)cc(C(F)(F)F)n(C)c2=O)c(F)cc1Cl [Compound 46, 2-{{2-Chloro-5-[3,6-dihydro-3-methyl-2,6-dioxo-4-(trifluoromethyl)-1(2H)-pyrimidinyl]-4-fluoro-phenyl}imino}-4-oxo-3-thiazolidineacetic acid, ethyl ester, 1,1-dioxide]",Postemergence herbicidal rating ABUTH,ABUTH (Velvetleaf); Rate 0.0313 kg/ha,4.0
same,Postemergence herbicidal rating ABUTH,ABUTH (Velvetleaf); Rate 0.0625 kg/ha,9.0
same,Postemergence herbicidal rating AMBEL,"AMBEL (Ragweed, Common); Rate 0.0313 kg/ha",0.0
same,Postemergence herbicidal rating AMBEL,"AMBEL (Ragweed, Common); Rate 0.0625 kg/ha",5.0
same,Postemergence herbicidal rating IPOHE,[1]; Rate 0.0313 kg/ha,3.0
same,Postemergence herbicidal rating IPOHE,[1]; Rate 0.0625 kg/ha,9.0
same,Postemergence herbicidal rating ECHCG,ECHCG (Barnyardgrass) [2]; Rate 0.0313 kg/ha,0.0
same,Postemergence herbicidal rating ECHCG,ECHCG (Barnyardgrass) [2]; Rate 0.0625 kg/ha,0.0
same,Postemergence herbicidal rating SETVI,"SETVI (Foxtail, Green); Rate 0.0313 kg/ha",0.0
same,Postemergence herbicidal rating SETVI,"SETVI (Foxtail, Green); Rate 0.0625 kg/ha",0.0
same,Postemergence herbicidal rating GLXMAW,[3]; Rate 0.0313 kg/ha,5.0
same,Postemergence herbicidal rating GLXMAW,[3]; Rate 0.0625 kg/ha,5.5
same,Postemergence herbicidal rating TRZAWR,[4]; Rate 0.0313 kg/ha,2.0
same,Postemergence herbicidal rating TRZAWR,[4]; Rate 0.0625 kg/ha,3.0
same,Preemergence herbicidal rating CASOB,CASOB (Sicklepod); rate 0.1250 kg/ha,0.0
same,Preemergence herbicidal rating CASOB,CASOB (Sicklepod); rate 0.2500 kg/ha,0.0
same,Preemergence herbicidal rating CHEAL,[5]; rate 0.1250 kg/ha,9.0
same,Preemergence herbicidal rating CHEAL,[5]; rate 0.2500 kg/ha,9.0
same,Preemergence herbicidal rating GALAP,GALAP (Galium); rate 0.1250 kg/ha,0.0
same,Preemergence herbicidal rating GALAP,GALAP (Galium); rate 0.2500 kg/ha,0.0
same,Preemergence herbicidal rating IPOHE,[6]; rate 0.1250 kg/ha,0.0
same,Preemergence herbicidal rating IPOHE,[6]; rate 0.2500 kg/ha,1.0
same,Preemergence herbicidal rating ECHCG,ECHCG (Barnyardgrass) [7]; rate 0.1250 kg/ha,0.0
same,Preemergence herbicidal rating ECHCG,ECHCG (Barnyardgrass) [7]; rate 0.2500 kg/ha,0.0
same,Preemergence herbicidal rating ZEAMX,"ZEAMX (Corn, Field); rate 0.1250 kg/ha",0.0
same,Preemergence herbicidal rating ZEAMX,"ZEAMX (Corn, Field); rate 0.2500 kg/ha",1.0
same,Herbicidal rating ECHORC,[8]; rate 0.0313 kg/ha,0.0
same,Herbicidal rating ECHORC,[8]; rate 0.0625 kg/ha,0.0
same,Herbicidal rating ECHORC,[8]; rate 0.1250 kg/ha,0.0
same,Herbicidal rating ECHORC,[8]; rate 0.2500 kg/ha,4.0
"CCOC(=O)CN1C(=O)C(CCO)S/C1=N/c1cc(-n2c(=O)cc(C(F)(F)F)n(C)c2=O)c(F)cc1Cl (stereo not drawn) [Compound 49, Ethyl 2-{{2-chloro-5-[3,6-dihydro-3-methyl-2,6-dioxo-4-(trifluoromethyl)-1(2H)-pyrimidinyl]-4-fluorophenyl}imino}-5-(hydroxyethyl)-4-oxo-3-thiazolidineacetate]",Postemergence herbicidal rating ABUTH,ABUTH (Velvetleaf); Rate 0.0313 kg/ha,9.0
same,Postemergence herbicidal rating ABUTH,ABUTH (Velvetleaf); Rate 0.0625 kg/ha,9.0
same,Postemergence herbicidal rating ABUTH,ABUTH (Velvetleaf); rate 0.0156 kg/ha,9.0
same,Postemergence herbicidal rating AMBEL,"AMBEL (Ragweed, Common); Rate 0.0313 kg/ha",9.0
same,Postemergence herbicidal rating AMBEL,"AMBEL (Ragweed, Common); Rate 0.0625 kg/ha",9.0
same,Postemergence herbicidal rating AMBEL,"AMBEL (Ragweed, Common); rate 0.0156 kg/ha",9.0
same,Postemergence herbicidal rating IPOHE,[1]; Rate 0.0313 kg/ha,9.0
same,Postemergence herbicidal rating IPOHE,[1]; Rate 0.0625 kg/ha,9.0
same,Postemergence herbicidal rating IPOHE,[1]; rate 0.0156 kg/ha,9.0
same,Postemergence herbicidal rating ECHCG,ECHCG (Barnyardgrass) [2]; Rate 0.0313 kg/ha,0.0
same,Postemergence herbicidal rating ECHCG,ECHCG (Barnyardgrass) [2]; Rate 0.0625 kg/ha,0.0
same,Postemergence herbicidal rating ECHCG,ECHCG (Barnyardgrass) [2]; rate 0.0156 kg/ha,0.0
same,Postemergence herbicidal rating SETVI,"SETVI (Foxtail, Green); Rate 0.0313 kg/ha",4.0
same,Postemergence herbicidal rating SETVI,"SETVI (Foxtail, Green); Rate 0.0625 kg/ha",7.0
same,Postemergence herbicidal rating SETVI,"SETVI (Foxtail, Green); rate 0.0156 kg/ha",3.0
same,Postemergence herbicidal rating GLXMAW,[3]; Rate 0.0313 kg/ha,7.5
same,Postemergence herbicidal rating GLXMAW,[3]; Rate 0.0625 kg/ha,8.0
same,Postemergence herbicidal rating GLXMAW,[3]; rate 0.0156 kg/ha,7.5
same,Postemergence herbicidal rating TRZAWR,[4]; Rate 0.0313 kg/ha,4.5
same,Postemergence herbicidal rating TRZAWR,[4]; Rate 0.0625 kg/ha,4.5
same,Postemergence herbicidal rating TRZAWR,[4]; rate 0.0156 kg/ha,4.0
same,Preemergence herbicidal rating CASOB,CASOB (Sicklepod); rate 0.0156 kg/ha,0.0
same,Preemergence herbicidal rating CASOB,CASOB (Sicklepod); rate 0.0313 kg/ha,3.0
same,Preemergence herbicidal rating CASOB,CASOB (Sicklepod); rate 0.1250 kg/ha,3.0
same,Preemergence herbicidal rating CASOB,CASOB (Sicklepod); rate 0.2500 kg/ha,9.0
same,Preemergence herbicidal rating CHEAL,[5]; rate 0.0156 kg/ha,9.0
same,Preemergence herbicidal rating CHEAL,[5]; rate 0.0313 kg/ha,9.0
same,Preemergence herbicidal rating CHEAL,[5]; rate 0.0625 kg/ha,9.0
same,Preemergence herbicidal rating CHEAL,[5]; rate 0.1250 kg/ha,9.0
same,Preemergence herbicidal rating CHEAL,[5]; rate 0.2500 kg/ha,9.0
same,Preemergence herbicidal rating GALAP,GALAP (Galium); rate 0.0156 kg/ha,0.0
same,Preemergence herbicidal rating GALAP,GALAP (Galium); rate 0.0313 kg/ha,0.0
same,Preemergence herbicidal rating GALAP,GALAP (Galium); rate 0.0625 kg/ha,7.0
same,Preemergence herbicidal rating GALAP,GALAP (Galium); rate 0.1250 kg/ha,7.0
same,Preemergence herbicidal rating GALAP,GALAP (Galium); rate 0.2500 kg/ha,9.0
same,Preemergence herbicidal rating IPOHE,[6]; rate 0.0156 kg/ha,0.0
same,Preemergence herbicidal rating IPOHE,[6]; rate 0.0313 kg/ha,0.0
same,Preemergence herbicidal rating IPOHE,[6]; rate 0.0625 kg/ha,2.0
same,Preemergence herbicidal rating IPOHE,[6]; rate 0.1250 kg/ha,9.0
same,Preemergence herbicidal rating IPOHE,[6]; rate 0.2500 kg/ha,9.0
same,Preemergence herbicidal rating ECHCG,ECHCG (Barnyardgrass) [7]; rate 0.0156 kg/ha,0.0
same,Preemergence herbicidal rating ECHCG,ECHCG (Barnyardgrass) [7]; rate 0.0313 kg/ha,0.0
same,Preemergence herbicidal rating ECHCG,ECHCG (Barnyardgrass) [7]; rate 0.0625 kg/ha,0.0
same,Preemergence herbicidal rating ECHCG,ECHCG (Barnyardgrass) [7]; rate 0.1250 kg/ha,0.0
same,Preemergence herbicidal rating ECHCG,ECHCG (Barnyardgrass) [7]; rate 0.2500 kg/ha,3.0
same,Preemergence herbicidal rating ZEAMX,"ZEAMX (Corn, Field); rate 0.0156 kg/ha",0.0
same,Preemergence herbicidal rating ZEAMX,"ZEAMX (Corn, Field); rate 0.0313 kg/ha",0.0
same,Preemergence herbicidal rating ZEAMX,"ZEAMX (Corn, Field); rate 0.0625 kg/ha",0.0
same,Preemergence herbicidal rating ZEAMX,"ZEAMX (Corn, Field); rate 0.1250 kg/ha",3.0
same,Preemergence herbicidal rating ZEAMX,"ZEAMX (Corn, Field); rate 0.2500 kg/ha",3.0
same,Herbicidal rating ECHORC,[8]; rate 0.0313 kg/ha,0.0
same,Herbicidal rating ECHORC,[8]; rate 0.0625 kg/ha,2.0
same,Herbicidal rating ECHORC,[8]; rate 0.1250 kg/ha,5.0
same,Herbicidal rating ECHORC,[8]; rate 0.2500 kg/ha,7.0
